Values after ≈ are worked out from the molar mass of the structure shown.
Key:
[1] = system: P. aeruginosa ATCC27853; assay: Bacterial growth minimal inhibitory concentration (microdilution), P. aeruginosa ATCC27853; format: cell-based; conditions: Pseudomonas aeruginosa, quinolone-sensitive strain, cation-adjusted Mueller-Hinton Broth, read-out: MIC for P. aeruginosa AT0027853
Protocol: (§1) Bacterial growth minimal inhibitory concentrations: Minimal inhibitory concentrations (MICs; mg/L) were determined in cation-adjusted Mueller-Hinton Broth by a microdilution method following the description given in “Methods for Dilution Antimicrobial Susceptibility Tests for Bacteria that Grow Aerobically”, Approved standard, 7th ed., Clinical and Laboratory Standards Institute (CLSI) Document M7-A7, Wayne, Pa., USA (2006).
(§2) The compound of Example 1 according to the present invention (inv.) and reference compounds 4 (ref.) to 9 (ref.) were tested against several Gram-positive and Gram-negative bacteria. Staphylococcus aureus A798 is a multiply resistant strain (in particular quinolone-resistant), Klebsiella pneumoniae A-651 is a multiply resistant strain (in particular quinolone-resistant), while E. coli ATCC25922 and P. aeruginosa ATCC27853 are quinolone-sensitive strains. The corresponding antibacterial test results are given in Table 1 hereafter (MICs in mg/L).

[2] = system: CYP3A4, CYP2C9 and CYP2D6 (lowest IC50 of the isoforms measured); assay: Cytochrome P450 inhibition in human liver microsomes; format: in vitro ADME; conditions: lowest of isoforms 3A4, 2C9 and 2D6, 0-100 μM test compound, read-out: CYP450 lowest IC50 of the isoenzymes measured
Protocol: Cytochrome P450 inhibition: The objective of this in vitro assay was to assess potential inhibition of the human cytochrome P450 (CYP450) isoforms 3A4, 2C9 and 2D6 using human liver microsomes and isoform-specific marker reactions. […] This may affect plasma levels in vivo and potentially lead to adverse drug reactions or toxicity. Technically, specific marker-substrate of P450 enzymes were incubated with human liver microsomes in the presence/absence of a test compounds. The inhibition effect of the test compound towards the marker reaction was determined in incubations containing 0-100 μM of the test compound. The inhibitory effect was determined by the impact of the different compound concentrations towards the metabolite formation of the marker reaction. Formation of the metabolites was determined by LC-MS analysis. Metabolic stability of the compounds according to the present invention (inv.) and reference compounds (ref.) in human liver microsomes and inhibition of the human cytochrome P450 (CYP450) isoforms 3A4, 2C9 and 2D6 are given in Table 4 hereafter.

[3] = system: CHO cells; assay: Genetic toxicology: in vitro micronuclei formation in CHO cells; format: cell-based, Chinese hamster; conditions: 24 h treatment, ratio versus untreated cells
Protocol: Genetic toxicology testing of compounds to assess their ability to cause DNA damage was done in vitro in mammalian cell assays (CHO cells). The formation of micronuclei, small DNA-staining particles outside of the nucleus, was investigated in mononucleated and binucleated cells treated with increasing concentrations of a test compound for 24 h. DNA was stained with Hoechst 33342 (Mutat Res. 630:1-13, 2007), read with a high-content screening microscope (Opera Phenix, Perkin Elmer) and scored with an optimized algorithm using Harmony. Micronucleii associated with valid cells were enumerated and induction of micronuclei formation tabulated as ratio versus untreated cells if the fraction of valid cells was ≥0.2.
Genetic toxicity potential of the compound of Example 1 according to the present invention (inv.) and reference compounds (ref.) was assessed and the corresponding test results are given in Table 3 hereafter.

[4] = system: E. coli ATCC25922; assay: Bacterial growth minimal inhibitory concentration (microdilution), E. coli ATCC25922; format: cell-based; conditions: Escherichia coli, quinolone-sensitive strain, cation-adjusted Mueller-Hinton Broth
Protocol: as §1, §2

[5] = Metabolic stability: intrinsic clearance in human liver microsomes; format: in vitro ADME; conditions: 1 μM compound, up to 45 minutes
Protocol: Metabolic stability: Subcellular liver fractions and primary hepatocytes from different species were used to determine the in vitro intrinsic clearance of a compound in various species. The liver microsomal and hepatocytes in vitro half-life approach can be a suitable approach to measure intrinsic clearance in vitro, which can be scaled up to the in vivo situation and used in the prediction of human clearance (Obach et al., 1997). For this approach, […] were incubated for up to 45 minutes in subcellular liver fractions or 2 h in primary hepatocytes at final compound concentration of 1 μM. Disappearance of parent compound was determined by LC-MS analysis and intrinsic clearance calculated from the slope of compound disappearance thereof.
Metabolic stability of the compounds according to the present invention (inv.) and reference compounds (ref.) in human liver microsomes and inhibition of the human cytochrome P450 (CYP450) isoforms 3A4, 2C9 and 2D6 are given in Table 4 hereafter.

[6] = system: Staphylococcus aureus A798; assay: Bacterial growth minimal inhibitory concentration (microdilution), S. aureus A798; format: cell-based; conditions: multiply resistant (quinolone-resistant) strain, cation-adjusted Mueller-Hinton Broth
Protocol: as §1, §2

[7] = system: Klebsiella pneumoniae A-651; assay: Bacterial growth minimal inhibitory concentration (microdilution), K. pneumoniae A-651; format: cell-based; conditions: A651, multiply resistant (quinolone-resistant) strain, cation-adjusted Mueller-Hinton Broth
Protocol: as §1, §2

[8] = system: wild-type E. coli A-1261; assay: MIC against wild-type E. coli A-1261 with or without alkaline phosphatase or esterase (prodrug activation); format: cell-based; conditions: for MIC for E. coli A-1261 In the presence of an alkaline phosphatase (2 i.U./mL): alkaline phosphatase from bovine intestinal mucosa; for MIC for E. coli A-1261 In the presence of an esterase (10 i.U./mL): esterase from porcine liver; for MIC for E. coli A-1261 In the absence of alkaline phosphatase and esterase: no alkaline phosphatase, no esterase
Protocol: as §1
The compounds of Examples 2 and 3 of the present invention (inv.) were tested against wild-type E. coli A-1261 in the presence of alkaline phosphatase (from bovine intestinal mucosa: Sigma P6774-2KU; Lot: SLBB1168) or esterase (from porcine liver: Sigma E2884-5KU; Lot: 129K7010V), and in the absence of an alkaline phosphatase and esterase. The corresponding antibacterial test results are given in Table 2 hereafter (MICs in mg/L).

SMILES	MIC [1]	IC50 [2]	Maximal induction of micronuclei formation normalized vs. background [3]	MIC [4]	Intrinsic clearance in human liver microsomes [5]	MIC [6]	MIC [7]	MIC for E. coli A-1261 In the presence of an alkaline phosphatase (2 i.U./mL) [8]	MIC for E. coli A-1261 In the presence of an esterase (10 i.U./mL) [8]	MIC for E. coli A-1261 In the absence of alkaline phosphatase and esterase [8]
O=C1COc2ccc(N3C[C@H](CCCN[C@@H]4Cn5c(=O)ccc6cccc4c65)OC3=O)nc2N1 [Example 1, (S)-1-{3-[(S)-2-oxo-3-(3-oxo-3,4-dihydro-2H-pyrido[3,2-b][1,4]oxazin-6-yl)-oxazolidin-5-yl]-propylamino}-1,2-dihydro-pyrrolo[3,2,1-ij]quinolin-4-one]	1 µg/mL (≈ 2.17 µM)	> 50 µM	2.5	0.25 µg/mL (≈ 0.542 µM)	15 μL/min * mg microsomal protein	0.031 µg/mL (≈ 0.0672 µM)	0.5 µg/mL (≈ 1.08 µM)			
O=C1COc2ccc(N3C[C@H](CCCN(C(=O)OCOC(=O)CCc4ccccc4OP(=O)(O)O)[C@@H]4Cn5c(=O)ccc6cccc4c65)OC3=O)nc2N1 [Example 3]								0.25 µg/mL	1 µg/mL	>8 µg/mL
O=C1COc2ccc(N3C[C@H](CCCN(C(=O)OCOP(=O)(O)O)[C@@H]4Cn5c(=O)ccc6cccc4c65)OC3=O)nc2N1 [Example 2]								0.25 µg/mL	>8 µg/mL	>8 µg/mL

Reference: patent US10633395B2, “Aryloxazolidinone antibiotic compounds” (Idorsia Pharmaceuticals Ltd., priority 2017, dated 2020)
